# Read-outs that look alike come from different tables or passages of the source.
# Test system: iCell cardiomyocytes (human iPSC-derived cardiomyocytes)
# Assay: Intracellular Ca2+ flux / beating parameters in iCell cardiomyocytes (FLIPR tetra), 90 min or 24 h
# Type: cell-based
# Settings: Homo sapiens, Cardiomyocyte, 0.00 µM = 100.00; for activity at 0.1 µM: 0.10 µM
# Method in brief: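 Gelatin-plated iCell cardiomyocytes (5,000/well) were dye-loaded for 2 h at 37 °C, then exposed for 90 min or 24 h to PCBs/metabolites (5× plates at 0.05–500 µM; 0.5% DMSO final) in triplicate. Ca2+ flux was read for 100 s at 8 Hz and 37 °C. Peak height, frequency, spacing CV and decay/rise ratio were vehicle-normalized and fitted with a four-parameter logistic model, with POD set at 1 SD of vehicle.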
# [1] = 1.5 h, 90min, read-out: cm.amp.avg.90min
# [2] = 1.5 h, 90min, read-out: cm.amp.cv.90min
# [3] = 1.5 h, 90min, read-out: cm.bpm.90min
# [4] = 1.5 h, 90min, read-out: cm.decay.rise.90min
# [5] = 1.5 h, 90min, read-out: cm.spacing.cv.90min
# [6] = 24 h, 24hrs, read-out: cm.amp.avg.24hrs
# [7] = 24 h, 24hrs, read-out: cm.amp.cv.24hrs
# [8] = 24 h, 24hrs, read-out: cm.bpm.24hrs
# [9] = 24 h, 24hrs, read-out: cm.decay.rise.24hrs
# [10] = 24 h, 24hrs, read-out: cm.spacing.cv.24hrs
compound,measurement,setting,value
Clc1ccc(Cl)c(-c2cc(Cl)ccc2Cl)c1 [PCB52],activity at 0.01 µM,[1],97.9%
same,activity at 0.01 µM,[2],90.9%
same,activity at 0.01 µM,[3],102%
same,activity at 0.01 µM,[4],101%
same,activity at 0.01 µM,[5],93.9%
same,activity at 0.1 µM,[1],101%
same,activity at 0.1 µM,[2],102%
same,activity at 0.1 µM,[3],99.1%
same,activity at 0.1 µM,[4],101%
same,activity at 0.1 µM,[5],98.6%
same,activity at 1 µM,[1],105%
same,activity at 1 µM,[2],111%
same,activity at 1 µM,[3],97.8%
same,activity at 1 µM,[4],102%
same,activity at 1 µM,[5],91%
same,activity at 10 µM,[1],96.6%
same,activity at 10 µM,[2],99.4%
same,activity at 10 µM,[3],99.1%
same,activity at 10 µM,[4],111%
same,activity at 10 µM,[5],102%
same,activity at 100 µM,[1],44.4%
same,activity at 100 µM,[2],73%
same,activity at 100 µM,[3],0%
same,activity at 100 µM,[4],42.8%
same,activity at 100 µM,[5],71.6%
same,activity at 0.01 µM,[6],86.6%
same,activity at 0.01 µM,[7],98.1%
same,activity at 0.01 µM,[8],96.4%
same,activity at 0.01 µM,[9],111%
same,activity at 0.01 µM,[10],109%
same,activity at 0.1 µM,[6],84.6%
same,activity at 0.1 µM,[7],95.6%
same,activity at 0.1 µM,[8],90.7%
same,activity at 0.1 µM,[9],108%
same,activity at 0.1 µM,[10],89.3%
same,activity at 1 µM,[6],51.8%
same,activity at 1 µM,[7],42.2%
same,activity at 1 µM,[8],46.8%
same,activity at 1 µM,[9],55.5%
same,activity at 1 µM,[10],44.5%
same,activity at 10 µM,[6],86.5%
same,activity at 10 µM,[7],119%
same,activity at 10 µM,[8],93.6%
same,activity at 10 µM,[9],127%
same,activity at 10 µM,[10],98.5%
same,activity at 100 µM,[6],0%
same,activity at 100 µM,[7],0%
same,activity at 100 µM,[8],0%
same,activity at 100 µM,[9],0%
same,activity at 100 µM,[10],0%

# Source: PMC7377239, “Cardiovascular Effects of Polychlorinated Biphenyls and Their Major Metabolites” (Environmental Health Perspectives, 2020)
